Patent US4335249A, “Herbicidal diphenyl ethers, sulfides, sulfoxides and sulfones” (Rohm and Haas Company, priority 1976, dated 1982)

Experiments:
Assay type in all cases: in vivo
[1] = test system: cocklebur (Xanthium pensylvanicum); assay: Preemergence herbicidal activity, cocklebur; conditions: Xanthium strumarium, pre-emergence, 336 h, 2 lb/A
Procedure: (§1) Using the procedure described below, compounds of the invention are evaluated for control of several of the following plant species:
(§2) The following est procedure is employed. Seeds of selected crops and weeds are planted in soil in flats. For preemergence tests, the flats are treated with the test compound immediately after the planting. For postemergence tests, the seeds are allowed to germinate, and after two weeks the flats are treated with the test compound. The compound to be evaluated is dissolved in acetone, diluted with water, and sprayed over the flats using a carrier volume equivalent to 50 gallons per acre at the rate of application (pounds per acre, lb/A.) specified in the tables. About two weeks after the application of the test compound, the state of growth of the plants is observed and the phytotoxic effect of the compound is evaluated. Tables III and IV give the average percent control achieved by test compounds in terms of the percent of the plants which are killed by the compounds.

marigold (Tagetes spp.) [2] = assay: Preemergence herbicidal activity, marigold; conditions: pre-emergence, 336 h, 2 lb/A
Procedure: as §1, §2

[3] = test system: morningglory (Ipomoca spp.); assay: Preemergence herbicidal activity, morningglory; conditions: Ipomoea, pre-emergence, 336 h, 2 lb/A
Procedure: as §1, §2

[4] = test system: tomato (Lycopersicon esculentum); assay: Preemergence herbicidal activity, tomato; conditions: Solanum lycopersicum, pre-emergence, 336 h; Pre, 2 lb/A
Procedure: as §1, §2

[5] = test system: velvetleaf (Abutilon theophrasti); assay: Preemergence herbicidal activity, velvetleaf; conditions: Abutilon theophrasti, pre-emergence, 336 h; Pre, 2 lb/A
Procedure: as §1, §2

[6] = test system: barnyardgrass (Echinochloa crusgalli); assay: Preemergence herbicidal activity, barnyardgrass; conditions: Echinochloa crus-galli, pre-emergence, 336 h; Pre, 2 lb/A
Procedure: as §1
(§3) The following est procedure is employed. Seeds of selected crops and weeds are planted in soil in flats. For preemergence tests, the flats are treated with the test compound immediately after the planting. For postemergence tests, the seeds are allowed to germinate, and after two weeks the flats are treated with the test compound. The compound to be evaluated is dissolved in acetone, diluted with water, and sprayed over the flats using a carrier volume equivalent to 50 gallons per acre at the rate of application (pounds per acre, lb/A.) specified in the tables.

[7] = test system: downybrome (Bromus tectorum); assay: Preemergence herbicidal activity, downybrome; conditions: Bromus tectorum, pre-emergence, 336 h, Pre, 2 lb/A
Procedure: as §1, §2

foxtail (Setaria spp.) [8] = assay: Preemergence herbicidal activity, foxtail; conditions: Setaria, pre-emergence, 336 h; Pre, 2 lb/A
Procedure: as §1, §2

[9] = test system: yellow nutsedge (Cyperus esculentus); assay: Preemergence herbicidal activity, yellow nutsedge; conditions: Cyperus, pre-emergence, 336 h, 2 lb/A
Procedure: as §1, §2

wild oats (Avena fatua) [10] = assay: Preemergence herbicidal activity, wild oats; conditions: Avena fatua, pre-emergence, 336 h, Pre, 2 lb/A; read-out: % control, Wild oat
Procedure: as §1, §2

[11] = test system: cocklebur (Xanthium pensylvanicum); assay: Postemergence herbicidal activity, cocklebur; conditions: Xanthium strumarium, post-emergence, 336 h, 2 lb/A
Procedure: as §1, §2

marigold (Tagetes spp.) [12] = assay: Postemergence herbicidal activity, marigold; conditions: post-emergence, 336 h, 2 lb/A
Procedure: as §1, §2

[13] = test system: morningglory (Ipomoca spp.); assay: Postemergence herbicidal activity, morningglory; conditions: Ipomoea, post-emergence, 336 h, 2 lb/A
Procedure: as §1, §2

[14] = test system: tomato (Lycopersicon esculentum); assay: Postemergence herbicidal activity, tomato; conditions: Solanum lycopersicum, post-emergence, 336 h, Post, 2 lb/A
Procedure: as §1, §2

[15] = test system: velvetleaf (Abutilon theophrasti); assay: Postemergence herbicidal activity, velvetleaf; conditions: Abutilon theophrasti, post-emergence, 336 h, 2 lb/A
Procedure: as §1, §3

[16] = test system: barnyardgrass (Echinochloa crusgalli); assay: Postemergence herbicidal activity, barnyardgrass; conditions: Echinochloa crus-galli, post-emergence, 336 h; Post, 2 lb/A
Procedure: as §1, §3

[17] = test system: downybrome (Bromus tectorum); assay: Postemergence herbicidal activity, downybrome; conditions: Bromus tectorum, post-emergence, 336 h, Post, 2 lb/A
Procedure: as §1, §2

foxtail (Setaria spp.) [18] = assay: Postemergence herbicidal activity, foxtail; conditions: Setaria, post-emergence, 336 h, Post, 2 lb/A
Procedure: as §1, §2

[19] = test system: yellow nutsedge (Cyperus esculentus); assay: Postemergence herbicidal activity, yellow nutsedge; conditions: Cyperus, post-emergence, 336 h, 2 lb/A
Procedure: as §1, §2

wild oats (Avena fatua) [20] = assay: Postemergence herbicidal activity, wild oats; conditions: Avena fatua, post-emergence, 336 h, Post, 2 lb/A; read-out: % control, Wild oat
Procedure: as §1, §2

Row | Structure (SMILES) | pest or weed control at 2241.7 g/ha [1] [%] | pest or weed control at 2241.7 g/ha (marigold (Tagetes spp.) [2]) [%] | pest or weed control at 2241.7 g/ha [3] [%] | pest or weed control at 2241.7 g/ha [4] [%] | pest or weed control at 2241.7 g/ha [5] [%] | pest or weed control at 2241.7 g/ha [6] [%] | pest or weed control at 2241.7 g/ha [7] [%] | pest or weed control at 2241.7 g/ha (foxtail (Setaria spp.) [8]) [%] | pest or weed control at 2241.7 g/ha [9] [%] | pest or weed control at 2241.7 g/ha (wild oats (Avena fatua) [10]) [%] | pest or weed control at 2241.7 g/ha [11] [%] | pest or weed control at 2241.7 g/ha (marigold (Tagetes spp.) [12]) [%] | pest or weed control at 2241.7 g/ha [13] [%] | pest or weed control at 2241.7 g/ha [14] [%] | pest or weed control at 2241.7 g/ha [15] [%] | pest or weed control at 2241.7 g/ha [16] [%] | pest or weed control at 2241.7 g/ha [17] [%] | pest or weed control at 2241.7 g/ha (foxtail (Setaria spp.) [18]) [%] | pest or weed control at 2241.7 g/ha [19] [%] | pest or weed control at 2241.7 g/ha (wild oats (Avena fatua) [20]) [%]
1 | CCCCOC(=O)C(C)Oc1ccc(Oc2ccc(C(F)(F)F)cc2Cl)cc1 (centres unmarked) [Example 23] | 0 | 0 | 0 | 0 | 0 | 100 | 99 | 100 | 30 | 80 | 0 | 30 | 20 | 99 | 40 | 100 | 99 | 100 | 0 | 100
2 | C=CCOC(=O)C(C)Oc1ccc(Oc2ccc(C(F)(F)F)cc2Cl)cc1 (centres unmarked) [Example 24] | 100 | 0 | 0 | 0 | 0 | 100 | 99 | 100 | 30 | 80 | 20 | 50 | 20 | 95 | 80 | 100 | 100 | 100 | 0 | 100
3 | COCCOC(=O)C(C)Oc1ccc(Oc2ccc(C(F)(F)F)cc2Cl)cc1 (centres unmarked) [Example 25] | 0 | 0 | 0 | 0 | 0 | 100 | 95 | 100 | 30 | 70 | 20 | 30 | 40 | 95 | 60 | 100 | 80 | 100 | 40 | 100
4 | CCCCCCCCOC(=O)C(C)Oc1ccc(Oc2ccc(C(F)(F)F)cc2Cl)cc1 (centres unmarked) [Example 26] | 0 | 0 | 0 | 0 | 0 | 50 | 0 | 0 | 0 | 50 | 60 | 70 | 70 | 30 | 50 | 100 | 50 | 100 | 20 | 20
